The supplement of paper PMC10307832

Key:
Assay in all cases: relative viability (nuclei count vs DMSO), 5 days (fraction); higher = more cells survive
[1] = compound: C1CC(C1)(C(=O)O)C(=O)O.[NH2-].[NH2-].[Pt+2] [Carboplatin] + C[C@]1(O)C[C@@H](c2nc(-c3ccc4ccc(-c5ccccc5)nc4c3)c3c(N)nccn32)C1 [Linsitinib] (partner 1 µM)
Method in brief: (§1)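 Relative viability was taken as the ratio of nuclei in treated wells to nuclei in vehicle wells. Lung cancer cell lines in 1536-well plates received compounds by pin tool one day after seeding, either one drug alone or a fixed anchor-drug dose plus five library-drug doses (not always all listed) in √10 steps. Nuclei were counted on 4× images after 5 days of treatment, and values are medians of duplicate plates.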

[2] = compound: C1CC(C1)(C(=O)O)C(=O)O.[NH2-].[NH2-].[Pt+2] [Carboplatin] + O=C(c1cc(Cc2n[nH]c(=O)c3ccccc23)ccc1F)N1CCN(C(=O)C2CC2)CC1 [Olaparib] (partner 8 µM)
Method in brief: as §1

[3] = compound: CC[C@H](C)N1C=C(C2=C(C=C(C=C21)C3=CN=C(C=C3)N4CCNCC4)C(=O)NCC5=C(C=C(NC5=O)C)C)C [GSK126] + Cc1nc(NC(=O)N2CCC[C@H]2C(N)=O)sc1-c1ccnc(C(C)(C)C(F)(F)F)c1 [Alpelisib] (partner 2 µM)
Method in brief: as §1

[4] = compound: CC[C@H](C)N1C=C(C2=C(C=C(C=C21)C3=CN=C(C=C3)N4CCNCC4)C(=O)NCC5=C(C=C(NC5=O)C)C)C [GSK126] + Cc1nc(Nc2ncc(C(=O)Nc3c(C)cccc3Cl)s2)cc(N2CCN(CCO)CC2)n1 [Dasatinib] (partner 0.075 µM)
Method in brief: as §1

Row | Cell Line | relative viability ([1]; first compound 0.08 µM) | relative viability ([1]; first compound 0.253 µM) | relative viability ([1]; first compound 0.8 µM) | relative viability ([1]; first compound 2.53 µM) | relative viability ([1]; first compound 8 µM) | relative viability ([2]; first compound 0.08 µM) | relative viability ([2]; first compound 0.253 µM) | relative viability ([2]; first compound 0.8 µM) | relative viability ([2]; first compound 2.53 µM) | relative viability ([2]; first compound 8 µM) | relative viability ([3]; first compound 0.08 µM) | relative viability ([3]; first compound 0.253 µM) | relative viability ([3]; first compound 0.8 µM) | relative viability ([3]; first compound 2.53 µM) | relative viability ([3]; first compound 8 µM) | relative viability ([4]; first compound 0.08 µM) | relative viability ([4]; first compound 0.253 µM) | relative viability ([4]; first compound 0.8 µM) | relative viability ([4]; first compound 2.53 µM) | relative viability ([4]; first compound 8 µM)
1 | NCI-H1944 | 1.24 | 1.09 | 1.16 | 1.29 | 0.898 | 0.388 | 0.469 | 0.369 | 0.367 | 0.366 | 0.92 | 0.858 | 0.839 | 0.843 | 0.947 | 0.236 | 0.213 | 0.229 | 0.24 | 0.297
2 | HARA | 0.94 | 0.985 | 0.703 | 0.853 | 0.904 | 0.881 | 0.794 | 0.806 | 0.775 | 0.692 | 0.961 | 0.804 | 0.783 | 0.738 | 0.788 | 0.3 | 0.281 | 0.226 | 0.262 | 0.241
3 | NCI-H2347 | 1.05 | 1.04 | 0.967 | 0.893 | 0.841 | 0.55 | 0.568 | 0.57 | 0.546 | 0.498 | 1.22 | 0.918 | 1.09 | 0.99 | 0.907 | 0.257 | 0.331 | 0.347 | 0.305 | 0.304
4 | COR-L 105 | 0.88 | 1.02 | 0.681 | 0.792 | 0.572 | 0.766 | 0.756 | 0.518 | 0.544 | 0.456 | 0.984 | 1.03 | 0.927 | 1.02 | 0.966 | 0.356 | 0.331 | 0.342 | 0.288 | 0.398
5 | A-427 | 1.07 | 1.08 | 1.03 | 1.02 | 1.12 | 0.733 | 0.695 | 0.88 | 0.648 | 0.712 | 1.12 | 1.07 | 1.05 | 1.16 | 1.06 | 0.76 | 0.638 | 0.634 | 0.799 | 0.635
6 | HCC-15 | 0.9 | 0.892 | 0.888 | 0.812 | 0.7 | 0.664 | 0.729 | 0.693 | 0.57 | 0.492 | 0.915 | 0.88 | 0.816 | 0.858 | 0.759 | 0.728 | 0.671 | 0.578 | 0.609 | 0.653
7 | NCI-H1623 |  |  |  |  |  |  |  |  |  |  |  |  |  |  |  | 0.529 | 0.567 | 0.602 | 0.482 | 0.5
8 | NCI-H2342 |  |  |  |  |  | 0.447 | 0.497 | 0.394 | 0.357 | 0.372 |  |  |  |  |  | 0.358 | 0.288 | 0.312 | 0.314 | 0.315
9 | NCI-H2023 | 0.745 | 0.644 | 0.73 | 0.576 | 0.205 | 0.473 | 0.445 | 0.415 | 0.231 | 0.135 | 0.635 | 0.641 | 0.588 | 0.677 | 0.571 | 0.641 | 0.566 | 0.584 | 0.627 | 0.661
